Reference: PubChem BioAssay (NCI)
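Tested at 5 concentrations; 48 h exposure; 96-well plates; endpoints linearly interpolated, else capped at highest concentration. At the TGI there is no net growth.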 Where a SMILES comes first, the peptide text is derived from it. Bridges are numbered along the chain shown (N, C = ends). [ ]: non-standard residue; d: D form. The star is where a group is joined. Cbz = O=C(OCc1ccccc1)*; Aib = CC(C)(N)C(=O)O; OBn = c1ccc(CO*)cc1; βAla = NCCC(=O)O

Experiments:
Assay in all cases: NCI-60 cell line screen, 48 h
A498 renal = tested on: A498 renal
DU-145 prostate = tested on: DU-145 prostate
EKVX NSCLC = tested on: EKVX NSCLC
HT29 colon = tested on: HT29 colon
IGROV1 ovarian = tested on: IGROV1 ovarian
MALME-3M melanoma = tested on: MALME-3M melanoma
NCI-H460 lung = tested on: NCI-H460 lung
NCI/ADR-RES ovarian = tested on: NCI/ADR-RES ovarian
OVCAR-3 ovarian = tested on: OVCAR-3 ovarian
OVCAR-4 ovarian = tested on: OVCAR-4 ovarian
OVCAR-5 ovarian = tested on: OVCAR-5 ovarian
OVCAR-8 ovarian = tested on: OVCAR-8 ovarian
PC-3 prostate = tested on: PC-3 prostate
RXF 393 renal = tested on: RXF 393 renal
SK-MEL-28 melanoma = tested on: SK-MEL-28 melanoma
SK-OV-3 ovarian = tested on: SK-OV-3 ovarian
SW-620 colon = tested on: SW-620 colon
CAKI-1 renal = tested on: CAKI-1 renal
M14 melanoma = tested on: M14 melanoma
SR leukemia = tested on: SR leukemia

SMILES | TGI (A498 renal) [µM] | TGI (DU-145 prostate) [µM] | TGI (EKVX NSCLC) [µM] | TGI (HT29 colon) [µM] | TGI (IGROV1 ovarian) [µM] | TGI (MALME-3M melanoma) [µM] | TGI (NCI-H460 lung) [µM] | TGI (NCI/ADR-RES ovarian) [µM] | TGI (OVCAR-3 ovarian) [µM] | TGI (OVCAR-4 ovarian) [µM] | TGI (OVCAR-5 ovarian) [µM] | TGI (OVCAR-8 ovarian) [µM] | TGI (PC-3 prostate) [µM] | TGI (RXF 393 renal) [µM] | TGI (SK-MEL-28 melanoma) [µM] | TGI (SK-OV-3 ovarian) [µM] | TGI (SW-620 colon) [µM] | TGI (CAKI-1 renal) [µM] | TGI (M14 melanoma) [µM] | TGI (SR leukemia) [µM]
CCOC(=O)Cn1sc2ncc([N+](=O)[O-])cc2c1=O | > 100 | > 100 | > 100 | 29.8 | 25.9 | 33.9 | 34.4 | 35.5 | 33.4 | 38 | 38 | 30.3 | 28 | 35.4 | 28.6 | 34.6 | 30.6 | – | – | –
C/C(=N\NC(=S)N1CC2CCC(CC2)C1)c1ccncn1 | 2.84 | 6.26 | 4.21 | 5.5 | 3.78 | 1.42 | 1.65 | – | – | 9.92 | 5.44 | – | 15 | 2.25 | > 22.6 | 1.6 | 18.4 | 2.44 | 2.36 | –
CC1=CC(=O)NCCN1C | > 100 | – | > 100 | > 100 | > 100 | > 100 | > 100 | – | > 100 | > 100 | > 100 | > 100 | – | > 100 | > 100 | > 100 | > 100 | > 100 | > 100 | > 100
CCCCCCCCCCCCCCCCCc1cccc(OCOCCOC)c1CO | > 100 | – | > 100 | > 100 | > 100 | > 100 | > 100 | > 100 | > 100 | > 100 | > 100 | > 100 | > 100 | > 100 | > 100 | > 100 | > 100 | > 100 | > 100 | > 100
NS(=O)(=O)c1nnc(NC(=O)c2ccccc2)s1 | > 100 | > 100 | > 100 | – | – | > 100 | > 100 | > 100 | > 100 | > 100 | > 100 | > 100 | – | > 100 | > 100 | > 100 | > 100 | > 100 | > 100 | > 100
CC(=O)OCC1OC(N2C(c3ccccc3)=CC(c3ccccc3)C(C#N)=C2S)C(OC(C)=O)C(OC(C)=O)C1OC(C)=O (configuration not stated) | 44.2 | > 100 | – | > 82.5 | > 52.9 | 28.3 | > 49.5 | > 100 | > 63.1 | > 31.6 | > 100 | 24.2 | – | 12.9 | > 100 | – | > 100 | 7.73 | 74 | > 100
CC1=CC(=O)NP(=O)(Oc2ccc(C)cc2)N1 (configuration not stated) | > 100 | – | > 100 | > 100 | > 100 | > 100 | > 100 | – | > 100 | > 100 | > 100 | > 100 | – | – | > 100 | > 100 | > 100 | > 100 | > 100 | > 100
N#CCCN(c1ccc(/C=C2\N=C(c3ccc(Cl)cc3)OC2=O)cc1)S(=O)(=O)c1ccccc1 | > 100 | – | > 100 | > 100 | > 100 | – | > 100 | – | > 100 | > 100 | > 100 | > 100 | – | – | > 100 | > 100 | > 100 | > 100 | > 100 | > 100
O=C1CCC(c2ccccc2)C(O)(C(=O)O)C1 (configuration not stated) | > 100 | – | > 100 | > 100 | > 100 | > 100 | > 100 | – | > 100 | > 100 | > 100 | > 100 | – | – | > 100 | > 100 | > 100 | > 100 | > 100 | > 100
C1=C2C3=[N+](CCCC3)CC2Cc2ccsc21 (configuration not stated) | > 100 | > 100 | > 100 | > 100 | > 100 | > 100 | > 100 | > 100 | > 100 | > 100 | > 100 | > 100 | > 100 | > 100 | > 100 | > 100 | > 100 | > 100 | > 100 | –
O=C(CC(=O)n1nc(-c2ccccc2)c(N=Nc2ccc(Cl)cc2)c1-c1ccccc1)Nc1cccc(Cl)c1 | > 100 | – | > 100 | > 100 | > 100 | > 100 | > 100 | – | – | – | > 100 | > 100 | > 100 | > 100 | > 100 | – | > 100 | – | > 100 | > 100
Clc1ccc2c(NCCCCN=Cc3ccccc3)ccnc2c1 | 7.26 | 80.8 | 43.7 | 21.6 | 36.5 | 27.5 | 24.2 | 46.7 | 41.9 | 28.1 | 40.4 | 32 | 25.1 | 16.6 | 29 | 59.8 | 25.2 | – | 27.4 | –
Cc1cc(=O)[nH]c(NNC(C#N)c2ccc(O)cc2)n1 (configuration not stated) | – | – | – | > 100 | > 100 | > 100 | > 100 | – | > 100 | > 100 | > 100 | > 100 | – | > 100 | > 100 | > 100 | > 100 | > 100 | > 100 | > 100
CC(=O)NCc1nc(C#N)c(N)o1 | > 100 | > 100 | > 100 | > 100 | > 100 | > 100 | > 100 | > 100 | > 100 | > 100 | > 100 | > 100 | > 100 | > 100 | > 100 | > 100 | > 100 | > 100 | > 100 | –
O=P(c1ccccc1)(c1ccccc1)C(NCc1ccccc1)c1ccc(F)cc1 (configuration not stated) | 32 | 45.2 | 25.4 | 26.5 | 33.4 | 34.6 | 26.7 | 41.2 | 27.6 | 92.6 | – | 40.6 | – | 28.3 | 28.9 | 34.1 | 35.5 | 38 | 27.8 | 49.5
Cc1oc2nc(N(C)C)nc(Cl)c2c1C | > 100 | > 100 | > 100 | > 100 | > 100 | – | > 100 | > 100 | > 100 | > 100 | > 100 | > 100 | > 100 | > 100 | > 100 | – | > 100 | > 100 | > 100 | –
O=C(c1ccc(Cl)cc1Cl)N(C(=O)N1CCCCC1)c1ccccc1 | > 100 | > 100 | > 100 | > 100 | > 100 | > 100 | – | > 100 | > 100 | – | > 100 | > 100 | > 100 | > 100 | > 100 | > 100 | > 100 | > 100 | > 100 | –
O=C(CSc1nnc(Cc2ccccc2)o1)Nc1cccc([N+](=O)[O-])c1 | – | – | – | > 100 | > 100 | > 100 | > 100 | – | > 100 | > 100 | > 100 | > 100 | – | > 100 | > 100 | > 100 | – | – | > 100 | –
O=[N+]([O-])C(C(Cl)=C(Cl)Cl)=C(N1CCOCC1)N1CCOCC1 | > 100 | > 100 | > 100 | > 100 | > 100 | > 100 | – | – | > 100 | > 100 | > 100 | > 100 | > 100 | > 100 | > 100 | > 100 | – | > 100 | > 100 | –
CC#CC(=O)Nc1ccccc1CC(c1c[nH]c2ccccc12)c1c[nH]c2ccccc12 | – | – | 54.7 | 42.5 | 39.2 | 32.3 | – | – | 49.6 | – | – | 76.7 | – | – | 29.9 | 59.3 | 36.2 | 58.9 | 29.7 | –
N#[O+].O=S(=O)([O-])[O-].[NH2-].[NH2-].[NH2-].[NH2-].[NH2-].[Ru+5] | > 100 | – | > 100 | > 100 | > 100 | 27.7 | > 100 | – | > 100 | – | > 100 | > 100 | – | > 100 | > 100 | > 100 | > 100 | > 100 | – | > 100
CC1(C)NC(=O)C(NC(=O)C(CC(=O)OCc2ccccc2)NC(=O)OCc2ccccc2)CCCCNC(=O)CCNC1=O (configuration not stated) (Cbz-D(OBn)K[Aib][βAla]; lactam 2-C; configuration not given here) | > 100 | > 100 | > 100 | > 100 | > 100 | > 100 | > 100 | > 100 | > 100 | > 100 | > 100 | > 100 | > 100 | > 100 | > 100 | > 100 | > 100 | > 100 | > 100 | –
CCOC(=O)[C@H]1Nc2ccc(C)cc2C2c3ccccc3CC21 (some centres not stated) | > 100 | – | > 100 | > 100 | > 100 | > 100 | > 100 | – | > 100 | > 100 | > 100 | > 100 | – | > 100 | > 100 | – | > 100 | > 100 | > 100 | > 100
Cc1ccccc1Nc1cn(COCc2ccccc2)c(=O)[nH]c1=O | > 100 | > 100 | > 100 | > 100 | > 100 | – | > 100 | > 100 | > 100 | > 100 | > 100 | – | > 100 | > 100 | > 100 | – | > 100 | > 100 | > 100 | –
Cn1c(=O)c2c(nc(NCCCCl)n2CC(=O)NCCCCl)n(C)c1=O | > 100 | > 100 | > 100 | > 100 | > 100 | – | > 100 | > 100 | > 100 | > 100 | > 100 | > 100 | > 100 | > 100 | > 100 | > 100 | > 100 | > 100 | > 100 | –
COc1cc2c(c(OC)c1OC)-c1ccc(SC)c(=O)cc1C(CC(=O)Oc1ccc([N+](=O)[O-])cc1)C2 (configuration not stated) | 0.571 | – | > 100 | 0.099 | > 49.2 | > 65.2 | 5.78 | – | 0.905 | > 43.6 | > 100 | 5.08 | – | 0.65 | > 56.6 | > 100 | > 48.7 | > 62.8 | 1.53 | > 38
COc1cc(C2c3cc4c(cc3[C@@H](Nc3ccccc3)C3CO[C@@H](OC)[C@H]23)OCO4)cc(OC)c1O (some centres not stated) | – | – | > 25 | 10.7 | > 25 | – | > 25 | > 25 | – | > 25 | 23.8 | > 25 | > 25 | – | > 25 | > 25 | > 25 | – | > 25 | 22.6
N#CCCN(CCC#N)c1ccc(C(=O)NN)cc1 | > 100 | – | > 100 | > 100 | > 100 | > 100 | > 100 | – | > 100 | > 100 | > 100 | > 100 | – | > 100 | > 100 | > 100 | > 100 | > 100 | > 100 | –
